{"source": "patent US8846752B2", "about": "“Isoflavone fatty acid ester derivatives, preparation method and pharmaceutical uses thereof” (China Pharmaceutical University, priority 2010, dated 2014)", "key": {"[1]": {"tested_on": "High Fat Diet Rats", "assay": "Losing weight and depressing blood fat in high-fat diet SD rats", "type": "in vivo", "details": "intragastric once a day for a month, compounds 25 mg/kg, sibutramine 1.0 mg/kg, mean ± SD, n = 10", "method": "1. Activity Determination of Losing Weight and Depressing Blood Fat of SD Rats\nThe experiment refers to the methods in Experimental Methodology of Pharmacology compiled by Xu Shuyun et al, People's Medical Publishing House 2002: 1189-1201, which is slightly modified.\nSD rates (weight 80 g-100 g, male, clean grade) are randomly divided into the following groups according to the weight:\nBlank control group (normal diet group); model control group (high-fat diet group); sibutramine, 1.0 mg/kg; Group I-1, 25 mg/kg; Group I-2, 25 mg/kg; Group I-3, 25 mg/kg; Group II-1, 25 mg/kg; Group II-2, 25 mg/kg; Group II-3, 25 mg/kg.\nExcept the blank control group, the other groups are fed with high-fat diet for two months. In the third month, all groups are required for intragastric administration and the blank control group and model control group are given appropriate volume of excipients once a day for a consecutive month. After the administration, exsanguinate and kill the rats, take femoral arterial blood and separate the plasma, and then measure the parameters according to the unified operating procedures in the kit instructions. Remove the fat around abdominal cavity and reproductive organs, weigh its wet weight and determine the body weight."}, "[2]": {"tested_on": "PPARγ2-mRNA", "assay": "RT-PCR of PPARγ2-mRNA expression in 3T3-L1 cells", "type": "cell-based", "details": "during differentiation of preadipocyte 3T3-L1; GAPDH internal reference; FIG. 4", "method": "4.1.3 Reverse Transcription\nPolymerase chain reaction (RT-PCR) experiment Extract the total RNA of fully differentiated 3T3-L1 cells to be reversely transcribed into cDNA. The primers are designed as follows:\n• The length of the target product is 567 bp.\n• The length of the target product is 424 bp.\nPCR amplification conditions: initial denaturation at 94 for 5 min, then denaturize at 94 for 30 s, anneal at 57 for 40 s, and extend at 72 for 50 s, a total of 30 cycles. Finally extend at 72 for 10 min. Then conduct electrophoresis analysis with 1.5% agarose gel. GAPDH is used as the internal reference to alleviate the error between different samples. Compare the optical density of objective band with the optical density of amplified GAPDH band for analysis."}, "[3]": {"tested_on": "3T3-L1 cells", "assay": "Cell proliferation determination with MTT method", "type": "cell-based", "details": "25, 50, 100 and 200 μmol/L, 2 d; P<0.05 vs blank group; FIG. 1", "method": "4.1.1 Cell Proliferation Determination Experiment with MTT Method\nInoculate 3T3-L1 cells in 96-hole cell culture plate. After 2 d of conventional culture, replace with DMEM culture solutions with different concentrations (25, 50, 100 and 200 μmol/L) of Series I compounds. The control group is the culture solution containing 0.1% (V/V) ethanol (96%). 3 complex holes are set for each concentration in each group, processing 2 d. Discard the culture solution in the holes and add 20 μL MTT solution in each hole and culture at 37 for 4 h. Then discard the solution in the hole, add 100 μL DMSO solution in each hole, shake thoroughly and measure the absorbance (A) immediately in the enzyme-linked immunosorbent assay. The wavelength is measured to be 570 nm."}, "[4]": {"tested_on": "KM mice", "assay": "Acute toxicity test of KM mice", "type": "in vivo", "method": "3. Acute Toxicity Test of KM Mice\n3.1 I-1 Acute Toxicity Test of Intragastric Administration (ig) for Mice\n3.2 I-1 Acute Toxicity Test of Subcutaneous Injection (sc) for Mice\nAfter sc I-1 2000 mg/kg of mice under the conditions of maximum administration capacity and maximum administration concentration, no mice die and the mice toxic symptoms express as decrease in spontaneous activities and often creeping lying without moving. After about 48 h, mice activities begin to increase. Compared with the control group, the weight gain in subsequent observation period is slower."}, "[5]": {"tested_on": "high fat and high sugar model ICR mice", "assay": "Losing weight, depressing blood fat and regulating blood sugar balance in high fat and high sugar ICR mice", "type": "in vivo", "parameters": "Serum insulin concentration INS: unit not given here", "details": "n = 10, x ± s", "excerpt": "2. Activity Determination of Losing Weight, Depressing Blood Fat and Regulating Blood Sugar Balance of ICR Mice\nThe experiment refers to the methods of Raquel Ferrer-Lorente et al (European Journal of Pharmacology, 2005, 513: 243-248), which are slightly modified.\nTake 40 ICR mice (male, weight 13-15 g) and randomly divide them into two large groups according to their weight, a normal diet group (n=10) and a high fat and high sugar model group (n=30); give normal diet to the normal diet group and conduct subcutaneous injection of physiological saline each day; give high-fat and high-sugar diet to the high fat and high sugar model group and conduct subcutaneous injection of insulin (0.5 U/kg) each day. The food is not restricted. Measure the food regularly each day, weigh the weight once a week and feed 7 consecutive weeks.\n7 weeks after modeling, the normal diet group is unchanged and the high fat and high sugar model group is divided into model control group (n=10), I-1 administration group (n=10) and I-2 administration group (n=10). The feed of each group is unchanged. The administration group is given corresponding compounds with the dose of 50 mg/kg and the blank group is given the equal volume of blank solvent. Conduct intragastric administration on each group for consecutive 30 days. Weigh 12 h after fasting after last administration, take the eyeballs for blood, prepare serum, determine the blood fat (triglyceride TG, free fatty acid FFA, total cholesterol TC, low density lipoprotein cholesterol LDL-C and high density lipoprotein cholesterol HDL-C) content and blood insulin content and detect the oxidative damage indicators in the blood (malondialdehyde MAD and superoxide dismutase SOD). Take off the cervical vertebrae to kill the rats, separate the perirenal, testicular, mesenteric and inguinal (subcutaneous) white adipose tissue, wash clean with cold physiological saline and dry with filter paper, and then weigh."}, "[6]": {"tested_on": "3T3-L1 cells", "assay": "Oil red staining colorimetric experiment (preadipocyte differentiation)", "type": "cell-based", "details": "8th day of differentiation, 2nd day of administration; FIG. 2 and FIG. 3", "method": "4.1.2 Oil Red Staining Colorimetric Experiment\n4.1.2.1 Culture 3T3-L1 cells in conventional medium and replace with differential medium I (DMEM culture solution containing 15% FBS, 0.4 mmol/L IBMX, 10 mg/L insulin and 1 μmol/L DEX) 2 d after the cells are completely merged (0 d of differentiation) for culture for 2 d. In the second day of differentiation, replace with differential medium II (DMEM culture solution containing 15% FBS and 10 mg/L insulin) to culture cells. In the 6th day of differentiation and later, replace with corresponding DMEM culture solution containing series I compounds. The control group is the complete culture solution without drugs.\n4.1.2.2. Oil Red O Staining\nIn the 8th day of differentiation, discard the culture solution in the holes, wash with PBS for twice and add the solution containing 10% methanal to fix cells for 2 h. Wash with PBS for twice and stain with 0.5% oil red for 2 h. Wash with PBS for three times, dry at 37, add isopropanol, extract for 10 min and measure the absorbance value of the extract liquor at 492 nm."}, "[7]": {"details": "50 mg/kg intragastric for 30 days"}, "[8]": {"details": "high fat and high sugar model, 50 mg/kg intragastric daily"}, "[9]": {"details": "serum, 50 mg/kg intragastric for 30 days"}}, "data": [{"compound": "CCCCCCCC/C=C\\CCCCCCCC(=O)Oc1ccc2c(=O)c(-c3ccc(OC)cc3)coc2c1", "note": "[I-1, 4′-methoxy-7-O-oleoyl daizeol]", "values": [{"measurement": "Fat index", "setting": "[1]", "result": "5.0 ± 1.6", "unit": "g/100 g"}, {"measurement": "Free fatty acid FFA", "setting": "[1]", "result": "606.7 ± 144.7", "unit": "µmol/L"}, {"measurement": "Total cholesterol TC", "setting": "[1]", "result": "1.31 ± 0.27", "unit": "mmol/L"}, {"measurement": "Triglyceride TG", "setting": "[1]", "result": "0.91 ± 0.22", "unit": "mmol/L"}, {"measurement": "Weight after administration", "setting": "[1]", "result": "309 ± 36", "unit": "g"}, {"measurement": "PPARγ2-mRNA expression quantity", "setting": "[2]", "result": "increased"}, {"measurement": "Proliferation of preadipocyte 3T3-L1 (MTT, OD value)", "setting": "[3]", "result": "significant inhibition action"}, {"measurement": "LD50", "setting": "[4]; intragastric administration (ig)", "result": 2163.8, "unit": "mg/kg"}, {"measurement": "Mortality", "setting": "[4]; subcutaneous injection (sc) 2000 mg/kg, maximum administration capacity and concentration", "result": "no mice die"}, {"measurement": "Celiac total fat", "setting": "[5]; [7]", "result": "0.595 ± 0.172", "unit": "g"}, {"measurement": "Epididymal fat", "setting": "[5]; [7]", "result": "0.382 ± 0.230", "unit": "g"}, {"measurement": "MDA (serum oxidative damage indicator)", "setting": "[5]; [7]", "result": "0.810 ± 0.162", "unit": "nmol/L"}, {"measurement": "Mesenteric fat", "setting": "[5]; [7]", "result": "0.135 ± 0.047", "unit": "g"}, {"measurement": "Perirenal fat", "setting": "[5]; [7]", "result": "0.078 ± 0.050", "unit": "g"}, {"measurement": "SOD (serum oxidative damage indicator)", "setting": "[5]; [7]", "result": "382.3 ± 200.9", "unit": "U/ml"}, {"measurement": "Serum insulin concentration INS", "setting": "[5]; [7]", "result": "20.26 ± 2.69"}, {"measurement": "Subcutaneous fat", "setting": "[5]; [7]", "result": "0.136 ± 0.065", "unit": "g"}, {"measurement": "Body weight 1 week after", "setting": "[5]; [8]", "result": "39.1 ± 5.2", "unit": "g"}, {"measurement": "Body weight 2 weeks after", "setting": "[5]; [8]", "result": "33.8 ± 3.7", "unit": "g"}, {"measurement": "Body weight 3 weeks after", "setting": "[5]; [8]", "result": "31.5 ± 2.0", "unit": "g"}, {"measurement": "Body weight before administration", "setting": "[5]; high fat and high sugar model, baseline before 50 mg/kg intragastric", "result": "41.8 ± 5.7", "unit": "g"}, {"measurement": "FFA", "setting": "[5]; [9]", "result": "0.55 ± 0.14", "unit": "mmol/L"}, {"measurement": "HDL-C", "setting": "[5]; [9]", "result": "1.70 ± 0.53", "unit": "mmol/L"}, {"measurement": "LDL-C", "setting": "[5]; [9]", "result": "1.068 ± 0.636", "unit": "mmol/L"}, {"measurement": "TC", "setting": "[5]; [9]", "result": "2.79 ± 0.39", "unit": "mmol/L"}, {"measurement": "TG", "setting": "[5]; [9]", "result": "0.97 ± 0.21", "unit": "mmol/L"}, {"measurement": "Adipose differentiation of 3T3-L1 cells (oil red stained lipid droplets)", "setting": "[6]", "result": "lipid droplets are significantly decreased"}]}]}
